From patent US20260250257A1, “ANTIBACTERIAL AND SYNERGISTIC ACTIVE COMPOUND AND USE THEREOF” (EAST CHINA UNIVERSITY OF SCIENCE AND TECHNOLOGY, priority 2023, published 2026)
Values after ≈ are worked out from the molar mass of the structure shown.

system: ATCC19606 strain (Acinetobacter baumannii); assay: Checkerboard antibacterial synergistic activity test with polymyxin E (FIC); format: cell-based; design: key: FIC≤0.5 synergy; 0.5–1 additive; 1–2 indifferent; ≥2 antagonism; conditions: combined with polymyxin E
Summary of the method: (§1)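 FIC values come from a microdilution checkerboard crossing polymyxin E against the test compound in MH medium, with uninoculated blanks included. Incubation lasts 16 h at 37° C. Scoring: synergy at FIC ≤0.5, additivity between 0.5 and 1, indifference between 1 and 2, antagonism at 2 or above.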

Structure (SMILES) | Synergistic activity (FIC value) ATCC19606
CC(C)(C)c1cc(-c2csc(N=C(N)N)n2)cc(C(C)(C)C)c1 [Compound I-13] | 0.15
CNC(=O)c1ccc(-c2ccncn2)c(-c2csc(N=C3NCCCN3)n2)c1 [Compound I-138] | 1.25
Cc1ccc(O)c(-c2c[nH]c(N=C3NCCCN3)n2)c1 [Compound I-170] | 0.12
NC(N)=Nc1nc(C2CC3CC4CC3CC2C4)cs1 (stereo not drawn) [Compound I-117] | 0.5
NC(N)=Nc1nc(-c2ccccc2C(F)(F)F)c[se]1 [Compound I-41] | 0.5
Fc1sc(N=C2NCCCN2)nc1-c1cc(Br)cc(Br)c1 [Compound I-177] | 0.5
CS(=O)(=O)Oc1ccc(-c2coc(N=C(N)N)n2)cc1 [Compound I-28] | 1.25
NC(N)=Nc1nc(-c2ccc(OS(N)(=O)=O)cc2)co1 [Compound I-29] | 0.26
Oc1c(Cl)cc(-c2csc(N=C3NCCCN3)n2)cc1Cl [Compound I-188] | 0.25

system: ATCC25922 strain (Escherichia coli); assay: as above; format: cell-based; design: key: FIC≤0.5 synergy; 0.5–1 additive; 1–2 indifferent; ≥2 antagonism; conditions: combined with polymyxin E
Summary of the method: as §1

Structure (SMILES) | Synergistic activity (FIC value) ATCC25922
CC(C)(C)c1cc(-c2csc(N=C(N)N)n2)cc(C(C)(C)C)c1 [Compound I-13] | 0.39
CNC(=O)c1ccc(-c2ccncn2)c(-c2csc(N=C3NCCCN3)n2)c1 [Compound I-138] | 1.25
Cc1ccc(O)c(-c2c[nH]c(N=C3NCCCN3)n2)c1 [Compound I-170] | 0.38
NC(N)=Nc1nc(C2CC3CC4CC3CC2C4)cs1 (stereo not drawn) [Compound I-117] | 0.63
NC(N)=Nc1nc(-c2ccccc2C(F)(F)F)c[se]1 [Compound I-41] | 0.38
Fc1sc(N=C2NCCCN2)nc1-c1cc(Br)cc(Br)c1 [Compound I-177] | 0.63
CS(=O)(=O)Oc1ccc(-c2coc(N=C(N)N)n2)cc1 [Compound I-28] | 1.25
NC(N)=Nc1nc(-c2ccc(OS(N)(=O)=O)cc2)co1 [Compound I-29] | 1.25
Oc1c(Cl)cc(-c2csc(N=C3NCCCN3)n2)cc1Cl [Compound I-188] | 1.25

system: ATCC13883 strain (Klebsiella pneumoniae); assay: as above; format: cell-based; design: key: FIC≤0.5 synergy; 0.5–1 additive; 1–2 indifferent; ≥2 antagonism; conditions: combined with polymyxin E
Summary of the method: as §1

Structure (SMILES) | Synergistic activity (FIC value) ATCC13883
CC(C)(C)c1cc(-c2csc(N=C(N)N)n2)cc(C(C)(C)C)c1 [Compound I-13] | 0.33
CNC(=O)c1ccc(-c2ccncn2)c(-c2csc(N=C3NCCCN3)n2)c1 [Compound I-138] | 1.25
Cc1ccc(O)c(-c2c[nH]c(N=C3NCCCN3)n2)c1 [Compound I-170] | 0.31
NC(N)=Nc1nc(C2CC3CC4CC3CC2C4)cs1 (stereo not drawn) [Compound I-117] | 0.25
NC(N)=Nc1nc(-c2ccccc2C(F)(F)F)c[se]1 [Compound I-41] | 0.38
Fc1sc(N=C2NCCCN2)nc1-c1cc(Br)cc(Br)c1 [Compound I-177] | 1.25
CS(=O)(=O)Oc1ccc(-c2coc(N=C(N)N)n2)cc1 [Compound I-28] | 1.25
NC(N)=Nc1nc(-c2ccc(OS(N)(=O)=O)cc2)co1 [Compound I-29] | 1.25
Oc1c(Cl)cc(-c2csc(N=C3NCCCN3)n2)cc1Cl [Compound I-188] | 1.25

system: ATCC9027 strain (Pseudomonas aeruginosa); assay: as above; format: cell-based; design: key: FIC≤0.5 synergy; 0.5–1 additive; 1–2 indifferent; ≥2 antagonism; conditions: combined with polymyxin E
Summary of the method: as §1

Structure (SMILES) | Synergistic activity (FIC value) ATCC9027
CC(C)(C)c1cc(-c2csc(N=C(N)N)n2)cc(C(C)(C)C)c1 [Compound I-13] | 0.62
CNC(=O)c1ccc(-c2ccncn2)c(-c2csc(N=C3NCCCN3)n2)c1 [Compound I-138] | 1.25
Cc1ccc(O)c(-c2c[nH]c(N=C3NCCCN3)n2)c1 [Compound I-170] | 0.31
NC(N)=Nc1nc(C2CC3CC4CC3CC2C4)cs1 (stereo not drawn) [Compound I-117] | 1.25
NC(N)=Nc1nc(-c2ccccc2C(F)(F)F)c[se]1 [Compound I-41] | 0.63
Fc1sc(N=C2NCCCN2)nc1-c1cc(Br)cc(Br)c1 [Compound I-177] | 1.25
CS(=O)(=O)Oc1ccc(-c2coc(N=C(N)N)n2)cc1 [Compound I-28] | 0.51
NC(N)=Nc1nc(-c2ccc(OS(N)(=O)=O)cc2)co1 [Compound I-29] | 1.25
Oc1c(Cl)cc(-c2csc(N=C3NCCCN3)n2)cc1Cl [Compound I-188] | 0.52

system: ATCC19606 strain (Acinetobacter baumannii); assay: Broth microdilution, antibacterial activity of the compound used alone; format: cell-based; conditions: not given
Source text: (§2) The broth microdilution method was used to test the antibacterial effects of the compounds of the present invention against various Gram-negative bacterial strains when used alone.

Structure (SMILES) | Antibacterial activity of the compound of Formula I, ATCC19606
CC(C)(C)c1cc(-c2csc(N=C(N)N)n2)cc(C(C)(C)C)c1 [Compound I-13] | 256 µg/mL
CNC(=O)c1ccc(-c2ccncn2)c(-c2csc(N=C3NCCCN3)n2)c1 [Compound I-138] | 256 µg/mL
Cc1ccc(O)c(-c2c[nH]c(N=C3NCCCN3)n2)c1 [Compound I-170] | 256 µg/mL
NC(N)=Nc1nc(-c2ccccc2C(F)(F)F)c[se]1 [Compound I-41] | 256 µg/mL
Fc1sc(N=C2NCCCN2)nc1-c1cc(Br)cc(Br)c1 [Compound I-177] | 256 µg/mL
CS(=O)(=O)Oc1ccc(-c2coc(N=C(N)N)n2)cc1 [Compound I-28] | 256 µg/mL
NC(N)=Nc1nc(-c2ccc(OS(N)(=O)=O)cc2)co1 [Compound I-29] | 256 µg/mL
Oc1c(Cl)cc(-c2csc(N=C3NCCCN3)n2)cc1Cl [Compound I-188] | 256 µg/mL

same assay, conditions: read-out: Antibacterial activity of the compound of Formula I, ATCC19606

MIC | Structure (SMILES)
256 µg/mL (≈ 926 µM) | NC(N)=Nc1nc(C2CC3CC4CC3CC2C4)cs1 (stereo not drawn) [Compound I-117]

system: ATCC25922 strain (Escherichia coli); assay: as above; format: cell-based; conditions: not given
Source text: as §2

Structure (SMILES) | Antibacterial activity of the compound of Formula I, ATCC25922
CC(C)(C)c1cc(-c2csc(N=C(N)N)n2)cc(C(C)(C)C)c1 [Compound I-13] | 256 µg/mL
CNC(=O)c1ccc(-c2ccncn2)c(-c2csc(N=C3NCCCN3)n2)c1 [Compound I-138] | 256 µg/mL
Cc1ccc(O)c(-c2c[nH]c(N=C3NCCCN3)n2)c1 [Compound I-170] | 256 µg/mL
NC(N)=Nc1nc(-c2ccccc2C(F)(F)F)c[se]1 [Compound I-41] | 256 µg/mL
Fc1sc(N=C2NCCCN2)nc1-c1cc(Br)cc(Br)c1 [Compound I-177] | 256 µg/mL
CS(=O)(=O)Oc1ccc(-c2coc(N=C(N)N)n2)cc1 [Compound I-28] | 256 µg/mL
NC(N)=Nc1nc(-c2ccc(OS(N)(=O)=O)cc2)co1 [Compound I-29] | 256 µg/mL
Oc1c(Cl)cc(-c2csc(N=C3NCCCN3)n2)cc1Cl [Compound I-188] | 256 µg/mL

same assay, conditions: read-out: Antibacterial activity of the compound of Formula I, ATCC25922

MIC | Structure (SMILES)
32 µg/mL (≈ 116 µM) | NC(N)=Nc1nc(C2CC3CC4CC3CC2C4)cs1 (stereo not drawn) [Compound I-117]

system: ATCC13883 strain (Klebsiella pneumoniae); assay: as above; format: cell-based; conditions: not given
Source text: as §2

Structure (SMILES) | Antibacterial activity of the compound of Formula I, ATCC13883
CC(C)(C)c1cc(-c2csc(N=C(N)N)n2)cc(C(C)(C)C)c1 [Compound I-13] | 256 µg/mL
CNC(=O)c1ccc(-c2ccncn2)c(-c2csc(N=C3NCCCN3)n2)c1 [Compound I-138] | 256 µg/mL
Cc1ccc(O)c(-c2c[nH]c(N=C3NCCCN3)n2)c1 [Compound I-170] | 256 µg/mL
NC(N)=Nc1nc(-c2ccccc2C(F)(F)F)c[se]1 [Compound I-41] | 256 µg/mL
Fc1sc(N=C2NCCCN2)nc1-c1cc(Br)cc(Br)c1 [Compound I-177] | 256 µg/mL
CS(=O)(=O)Oc1ccc(-c2coc(N=C(N)N)n2)cc1 [Compound I-28] | 256 µg/mL
NC(N)=Nc1nc(-c2ccc(OS(N)(=O)=O)cc2)co1 [Compound I-29] | 256 µg/mL
Oc1c(Cl)cc(-c2csc(N=C3NCCCN3)n2)cc1Cl [Compound I-188] | 256 µg/mL

same assay, conditions: read-out: Antibacterial activity of the compound of Formula I, ATCC13883

MIC | Structure (SMILES)
64 µg/mL (≈ 232 µM) | NC(N)=Nc1nc(C2CC3CC4CC3CC2C4)cs1 (stereo not drawn) [Compound I-117]

system: ATCC9027 strain (Pseudomonas aeruginosa); assay: as above; format: cell-based; conditions: not given
Source text: as §2

Structure (SMILES) | Antibacterial activity of the compound of Formula I, ATCC9027
CC(C)(C)c1cc(-c2csc(N=C(N)N)n2)cc(C(C)(C)C)c1 [Compound I-13] | 256 µg/mL
CNC(=O)c1ccc(-c2ccncn2)c(-c2csc(N=C3NCCCN3)n2)c1 [Compound I-138] | 256 µg/mL
Cc1ccc(O)c(-c2c[nH]c(N=C3NCCCN3)n2)c1 [Compound I-170] | 256 µg/mL
NC(N)=Nc1nc(-c2ccccc2C(F)(F)F)c[se]1 [Compound I-41] | 256 µg/mL
Fc1sc(N=C2NCCCN2)nc1-c1cc(Br)cc(Br)c1 [Compound I-177] | 256 µg/mL
CS(=O)(=O)Oc1ccc(-c2coc(N=C(N)N)n2)cc1 [Compound I-28] | 256 µg/mL
NC(N)=Nc1nc(-c2ccc(OS(N)(=O)=O)cc2)co1 [Compound I-29] | 256 µg/mL
Oc1c(Cl)cc(-c2csc(N=C3NCCCN3)n2)cc1Cl [Compound I-188] | 256 µg/mL

same assay, conditions: read-out: Antibacterial activity of the compound of Formula I, ATCC9027

MIC | Structure (SMILES)
16 µg/mL (≈ 57.9 µM) | NC(N)=Nc1nc(C2CC3CC4CC3CC2C4)cs1 (stereo not drawn) [Compound I-117]
